#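 Compound exposure: 48 hours, 5 concentrations, 96-well plates. Abbreviation: GI50, concentration required for 50% inhibition of growth.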 Activity calls are given as the source filed them. Cut-off read from the data, not from the text of the source: active = GI50 up to about 1.1 µM and inactive = higher.
# Assays:
# Test in all cases: NCI anticancer screen, dose series, 48 h
# NCI-H23 = system: NCI-H23
# HOP-92 = system: HOP-92
# NCI-H460 = system: NCI-H460
# Malme-3M = system: Malme-3M
# ACHN = system: ACHN
# HCT-116 = system: HCT-116
# K562 = system: K562
# SF-268 = system: SF-268
# COLO 205 = system: COLO 205
# M14 = system: M14
# A498 = system: A498
# KM12 = system: KM12
# SF-295 = system: SF-295
# SNB-78 = system: SNB-78
# RXF 393 = system: RXF 393
# HOP-18 = system: HOP-18
# SK-MEL-5 = system: SK-MEL-5
# TK-10 = system: TK-10
# 786-0 = system: 786-0
# SK-MEL-2 = system: SK-MEL-2
# SNB-19 = system: SNB-19
# KM-20L2 = system: KM-20L2
# U-251 = system: U-251
# DMS-114 = system: DMS-114
# HOP-62 = system: HOP-62
# UACC-62 = system: UACC-62
# M19-MEL = system: M19-MEL
# SK-MEL-28 = system: SK-MEL-28
# XF498 = system: XF498
# SK-OV-3 = system: SK-OV-3
# HCT-15 = system: HCT-15
# HCC 2998 = system: HCC 2998
# SN12C = system: SN12C
# OVCAR-4 = system: OVCAR-4
# SF-539 = system: SF-539
# SNB-75 = system: SNB-75
# UACC-257 = system: UACC-257
# RPMI-8226 = system: RPMI-8226
# LOX IMVI = system: LOX IMVI
# CAKI-1 = system: CAKI-1
# HL-60 = system: HL-60
# OVCAR-3 = system: OVCAR-3
# DLD-1 = system: DLD-1
# NCI-H226 = system: NCI-H226
# HT-29 = system: HT-29
# OVCAR-5 = system: OVCAR-5
# A549 = system: A549
# CCRF-CEM = system: CCRF-CEM
# UO-31 = system: UO-31
# OVCAR-8 = system: OVCAR-8
# NCI-H522 = system: NCI-H522
# DMS-273 = system: DMS-273
# SW-620 = system: SW-620
# IGROV-1 = system: IGROV-1
# MOLT-4 = system: MOLT-4
# EKVX = system: EKVX
# LXFL 529 = system: LXFL 529
structure (smiles),measurement,setting,value
Cc1cccc(/C=N/C23CC4CC(CC(C4)C2)C3)c1,GI50,NCI-H23,> 100 µM (inactive)
same,GI50,HOP-92,> 100 µM (inactive)
same,GI50,NCI-H460,> 100 µM (inactive)
same,GI50,Malme-3M,> 100 µM (inactive)
same,GI50,ACHN,> 100 µM (inactive)
same,GI50,HCT-116,> 100 µM (inactive)
same,GI50,K562,> 100 µM (inactive)
same,GI50,SF-268,> 100 µM (inactive)
same,GI50,COLO 205,> 100 µM (inactive)
same,GI50,M14,> 100 µM (inactive)
same,GI50,A498,> 100 µM (inactive)
same,GI50,KM12,> 100 µM (inactive)
same,GI50,SF-295,> 100 µM (inactive)
same,GI50,SNB-78,> 100 µM (inactive)
same,GI50,RXF 393,> 100 µM (inactive)
same,GI50,HOP-18,> 100 µM (inactive)
same,GI50,SK-MEL-5,> 100 µM (inactive)
same,GI50,TK-10,> 100 µM (inactive)
same,GI50,786-0,> 100 µM (inactive)
same,GI50,SK-MEL-2,> 100 µM (inactive)
same,GI50,SNB-19,> 100 µM (inactive)
same,GI50,KM-20L2,> 100 µM (inactive)
same,GI50,U-251,> 100 µM (inactive)
same,GI50,DMS-114,> 100 µM (inactive)
same,GI50,HOP-62,> 100 µM (inactive)
same,GI50,UACC-62,> 100 µM (inactive)
same,GI50,M19-MEL,> 100 µM (inactive)
same,GI50,SK-MEL-28,> 100 µM (inactive)
same,GI50,XF498,> 100 µM (inactive)
same,GI50,SK-OV-3,> 100 µM (inactive)
same,GI50,HCT-15,> 100 µM
same,GI50,HCC 2998,> 100 µM (inactive)
same,GI50,SN12C,> 100 µM (inactive)
same,GI50,OVCAR-4,> 100 µM (inactive)
same,GI50,SF-539,> 100 µM (inactive)
same,GI50,SNB-75,> 100 µM (inactive)
same,GI50,UACC-257,> 100 µM (inactive)
same,GI50,RPMI-8226,> 100 µM (inactive)
same,GI50,LOX IMVI,> 100 µM (inactive)
same,GI50,CAKI-1,> 100 µM (inactive)
same,GI50,HL-60,> 100 µM (inactive)
same,GI50,OVCAR-3,> 100 µM (inactive)
same,GI50,DLD-1,> 100 µM (inactive)
same,GI50,NCI-H226,> 100 µM (inactive)
same,GI50,HT-29,> 100 µM (inactive)
same,GI50,OVCAR-5,> 100 µM (inactive)
same,GI50,A549,> 100 µM (inactive)
same,GI50,CCRF-CEM,> 100 µM (inactive)
same,GI50,UO-31,> 100 µM (inactive)
same,GI50,OVCAR-8,> 100 µM (inactive)
same,GI50,NCI-H522,> 100 µM (inactive)
same,GI50,DMS-273,> 100 µM (inactive)
same,GI50,SW-620,> 100 µM (inactive)
same,GI50,IGROV-1,> 100 µM (inactive)
same,GI50,MOLT-4,> 100 µM (inactive)
same,GI50,EKVX,> 100 µM (inactive)
CCOC(=O)[C@@]12C(C)=CC(=O)O[C@]1(C)C[C@H]2C#N,GI50,NCI-H23,> 100 µM (inactive)
same,GI50,HOP-92,> 100 µM (inactive)
same,GI50,NCI-H460,> 100 µM (inactive)
same,GI50,Malme-3M,> 100 µM (inactive)
same,GI50,ACHN,> 100 µM (inactive)
same,GI50,HCT-116,> 100 µM (inactive)
same,GI50,K562,> 100 µM (inactive)
same,GI50,SF-268,> 100 µM (inactive)
same,GI50,COLO 205,> 100 µM (inactive)
same,GI50,M14,> 100 µM (inactive)
same,GI50,A498,> 100 µM (inactive)
same,GI50,KM12,> 100 µM (inactive)
same,GI50,SF-295,> 100 µM (inactive)
same,GI50,SNB-78,> 100 µM (inactive)
same,GI50,RXF 393,> 100 µM (inactive)
same,GI50,HOP-18,15.4 µM (inactive)
same,GI50,SK-MEL-5,> 100 µM (inactive)
same,GI50,TK-10,> 100 µM (inactive)
same,GI50,786-0,> 100 µM (inactive)
same,GI50,SK-MEL-2,> 100 µM (inactive)
same,GI50,SNB-19,> 100 µM (inactive)
same,GI50,KM-20L2,> 100 µM (inactive)
same,GI50,U-251,> 100 µM (inactive)
same,GI50,DMS-114,> 100 µM (inactive)
same,GI50,HOP-62,> 100 µM (inactive)
same,GI50,UACC-62,> 100 µM (inactive)
same,GI50,M19-MEL,> 100 µM (inactive)
same,GI50,SK-MEL-28,> 100 µM (inactive)
same,GI50,SK-OV-3,> 100 µM (inactive)
same,GI50,HCT-15,> 100 µM
same,GI50,HCC 2998,> 100 µM (inactive)
same,GI50,SN12C,> 100 µM (inactive)
same,GI50,OVCAR-4,> 100 µM (inactive)
same,GI50,SF-539,> 100 µM (inactive)
same,GI50,SNB-75,20.8 µM (inactive)
same,GI50,UACC-257,> 100 µM (inactive)
same,GI50,RPMI-8226,> 100 µM (inactive)
same,GI50,LOX IMVI,> 100 µM (inactive)
same,GI50,HL-60,> 100 µM (inactive)
same,GI50,OVCAR-3,> 100 µM (inactive)
same,GI50,DLD-1,> 100 µM (inactive)
same,GI50,NCI-H226,50.9 µM (inactive)
same,GI50,HT-29,> 100 µM (inactive)
same,GI50,A549,> 100 µM (inactive)
same,GI50,CCRF-CEM,> 100 µM (inactive)
same,GI50,UO-31,> 100 µM (inactive)
same,GI50,OVCAR-8,> 100 µM (inactive)
same,GI50,DMS-273,> 100 µM (inactive)
same,GI50,SW-620,> 100 µM (inactive)
same,GI50,LXFL 529,> 100 µM (inactive)
same,GI50,IGROV-1,> 100 µM (inactive)
same,GI50,MOLT-4,> 100 µM (inactive)
same,GI50,EKVX,> 100 µM (inactive)

# Source: ChEMBL document CHEMBL1201862, “PubChem BioAssay data set” (2004)
